Measured values: paper PMC8957246, “Synthesis and diverse biological activity profile of triethylammonium isatin-3-hydrazones” (ADMET & DMPK, 2022)
Like-named read-outs stand apart in the source and are kept apart here.

Assays:
Type in all cases: cell-based
[1] = system: Pectobacterium atrosepticum 1043; assay: Bactericidal activity, agar diffusion, P. atrosepticum; settings: Pectobacterium atrosepticum, 1043, 2 mM/L
Source text: (§1) Plant pathogenic bacterial strains Micrococcus luteus B-109, Pectobacterium atrosepticum 1043, Pectobacterium carotovorum subsp. carotovorum MI, Pseudomonas fluorescens EL-2.1, and Xanthomonas campestris B-610 and fungal strain Fusarium oxysporum IBPPM 543 were obtained from the specialized scientific culture collection of IBPPM RAS (WFCC no. 975, WDCM no. 1021) (CM IBPPM). Pathogenic fungus Phytophthora cactorum VKM F-985 provided by the All-Russian Collection of Microorganisms (VKM) and deposited at A.E. Favorsky Irkutsk Institute of Chemistry, SB RAS, was also used as test organism. Bacteria M. luteus, P. carotovorum subsp. carotovorum, P. atrosepticum, and Ps. fluorescens were grown in meat-peptone medium (BP), and X. campestris was grown in the medium with glucose, yeast extract, and calcium carbonate (GYCa). Solid media contained Bacto agar (18 g/L); pH was adjusted to 7.2-7.4. All bacterial cultures were grown at 28°C. The mycelial cultures of F. oxysporum and P. cactorum were grown on a glucose-peptone-yeast (GPY) nutrient medium at 27 °C. For inoculum preparation, both fungal strains were initially grown on the agar GPY in Petri dishes and then transferred into the seed medium by punching out 5 mm of the agar plate culture with a self-designed cutter.
Antibacterial and antifungal activities of the compounds were explored using the agar diffusion method and the technique of a phytopathogen radial growth inhibition. Method of diffusion in agar (measuring the diameter of growth inhibition zones) was used for determining the bactericidal activity. The 6-mm wells were made in ager medium (GYCa for Xanthomonas campestris or BP for other bacteria). Bacterial suspensions were distributed over the agar surface, and the tested compound's solution (150 μl) was added to each well. The width of growth inhibition zones around the wells was determined after incubation for 36-40 h.
(§2) The solutions of tested compounds were prepared with a concentration of 2 mmol/l (stock solution). For comparison, test compounds were also commonly applied disinfecting agents and antibiotics.

[2] = system: platelets (collagen-induced aggregation); assay: Platelet aggregation (Born method), collagen-induced; settings: Homo sapiens, collagen 5 mg/mL, final concentration 2×10^–3 mol/L, median (25-75 percentiles), read-out: Platelets aggregation, % of control, Collagen
[3] = system: Phytophthora cactorum VKM F-985; assay: Fungicidal activity, radial growth inhibition, P. cactorum; settings: for EC50: Phytophthora cactorum, 168 h, day 7, EC50 = 50C/I, read-out: EC50, μg/mL at day 7
Source text: as §1
For the fungicidal activity analysis, radial growth (colony diameters) of the fungi on a solid medium in the absence and in the presence of the compounds 3a,c-g solutions at various concentrations were compared. The method consisted of the following: sterile, melted and then cooled to about 60°C GPY agar medium (20.0 ml) was mixed with the precisely measured volumes of the solutions under question, and poured into a sterile Petri dish (90 mm i.d.). After solidification of GPY agar, the media were inoculated by the fungus using 10-day-old cultures of F. oxysporum or P. cactorum. The inoculation was done by transferring a 5-mm (i.d.) GPY-agar block covered with mycelium to the center of the Petri dish followed by incubation in a thermostat at 27°C. The fungicidal effect was scored by the size of mycelium colony on a Petri dish compared to the control without fungicidal admixtures to GPY agar. Each treatment was performed in at least four replicates in two independent experiments. The observation period ended when the control Petri dish was filled with mycelium (usually after 12 days). The inhibition of the phytopathogen colony growth by the compounds 3a,c-g or fludioxonil solutions was calculated as a percentage by which the mycelium radial propagation was decreased compared to the unaffected control, the latter was taken as 100 % of growth (or zero percent of inhibition). The EC50 value was calculated as the compound concentration at which the radial growth of the fungus colony was decreased by 50 % relative to the non-fungicidal control, according to the formula EC50 = 50C/I based on the approach developed e.g., in [34, 35].
as §2

[4] = 150 μl per well, 36-40 h, read-out: width of the inhibition zone
[5] = read-out: Inhibition zone width (mm), not less

## CC[N+](CC)(CC)CC(=O)N/N=C1\C(=O)N(Cc2cc(C(C)(C)C)c(O)c(C(C)(C)C)c2)c2cccc(Br)c21 [Compound 3e, 2-(2-(1-(3,5-Di-tert-butyl-4-hydroxybenzyl)-4-bromo-2-oxoindolin-3-ylidene)hydrazinyl)-N,N,N-triethyl-2-oxoethanammonium bromide]
[1]; [4]
  zone of inhibition at 2000 µM: 15 mm
[1]; [5]
  zone of inhibition at 2000 µM: ≥ 15 mm
[2]
  inhibition at 2000 µM: 2.4%
[3]; C 1.36 μg/mL, age of the fungus 3 days
  Inhibition value, I (%): 8%
[3]; C 1.36 μg/mL, age of the fungus 5 days
  Inhibition value, I (%): 14%
[3]; C 1.36 μg/mL, age of the fungus 7 days
  Inhibition value, I (%): 22%
[3]; C 1.36 μg/mL, age of the fungus 9 days
  Inhibition value, I (%): 10%
[3]; C 1.36 μg/mL, age of the fungus 12 days
  Inhibition value, I (%): 3%
[3]; C 3.41 μg/mL, age of the fungus 3 days
  Inhibition value, I (%): 13%
[3]; C 3.41 μg/mL, age of the fungus 5 days
  Inhibition value, I (%): 21%
[3]; C 3.41 μg/mL, age of the fungus 7 days
  Inhibition value, I (%): 34%
[3]; C 3.41 μg/mL, age of the fungus 9 days
  Inhibition value, I (%): 12%
[3]; C 3.41 μg/mL, age of the fungus 12 days
  Inhibition value, I (%): 5%
[3]; C 6.81 μg/mL, age of the fungus 3 days
  Inhibition value, I (%): 17%
[3]; C 6.81 μg/mL, age of the fungus 5 days
  Inhibition value, I (%): 33%
[3]; C 6.81 μg/mL, age of the fungus 7 days
  Inhibition value, I (%): 38%
[3]; C 6.81 μg/mL, age of the fungus 9 days
  Inhibition value, I (%): 16%
[3]; C 6.81 μg/mL, age of the fungus 12 days
  Inhibition value, I (%): 7%
[3]; C 10.22 μg/mL, age of the fungus 3 days
  Inhibition value, I (%): 39%
[3]; C 10.22 μg/mL, age of the fungus 5 days
  Inhibition value, I (%): 40%
[3]; C 10.22 μg/mL, age of the fungus 7 days
  Inhibition value, I (%): 53%
[3]; C 10.22 μg/mL, age of the fungus 9 days
  Inhibition value, I (%): 28%
[3]; C 10.22 μg/mL, age of the fungus 12 days
  Inhibition value, I (%): 18%
[3]; C 13.62 μg/mL, age of the fungus 3 days
  Inhibition value, I (%): 45%
[3]; C 13.62 μg/mL, age of the fungus 5 days
  Inhibition value, I (%): 62%
[3]; C 13.62 μg/mL, age of the fungus 7 days
  Inhibition value, I (%): 72%
[3]; C 13.62 μg/mL, age of the fungus 9 days
  Inhibition value, I (%): 70%
[3]; C 13.62 μg/mL, age of the fungus 12 days
  Inhibition value, I (%): 66%
[3]
  EC50: 3.1 µg/mL

## CC[N+](CC)(CC)CC(=O)N/N=C1\C(=O)N(Cc2cc(C(C)(C)C)c(O)c(C(C)(C)C)c2)c2ccc([N+](=O)[O-])cc21 [Compound 3f, 2-(2-(1-(3,5-Di-tert-butyl-4-hydroxybenzyl)-5-nitro-2-oxoindolin-3-ylidene)hydrazinyl)-N,N,N-triethyl-2-oxoethanammonium bromide]
[1]; [4]
  zone of inhibition at 2000 µM: 10 mm
[1]; [5]
  zone of inhibition at 2000 µM: ≥ 10 mm
[2]
  inhibition at 2000 µM: 4.3%
[3]; C 1.29 μg/mL, age of the fungus 3 days
  Inhibition value, I (%): 17%
[3]; C 1.29 μg/mL, age of the fungus 5 days
  Inhibition value, I (%): 11%
[3]; C 1.29 μg/mL, age of the fungus 7 days
  Inhibition value, I (%): 2%
[3]; C 1.29 μg/mL, age of the fungus 9 days
  Inhibition value, I (%): 0%
[3]; C 1.29 μg/mL, age of the fungus 12 days
  Inhibition value, I (%): 0%
[3]; C 3.24 μg/mL, age of the fungus 3 days
  Inhibition value, I (%): 33%
[3]; C 3.24 μg/mL, age of the fungus 5 days
  Inhibition value, I (%): 19%
[3]; C 3.24 μg/mL, age of the fungus 7 days
  Inhibition value, I (%): 18%
[3]; C 3.24 μg/mL, age of the fungus 9 days
  Inhibition value, I (%): 1%
[3]; C 3.24 μg/mL, age of the fungus 12 days
  Inhibition value, I (%): 0%
[3]; C 6.47 μg/mL, age of the fungus 3 days
  Inhibition value, I (%): 35%
[3]; C 6.47 μg/mL, age of the fungus 5 days
  Inhibition value, I (%): 23%
[3]; C 6.47 μg/mL, age of the fungus 7 days
  Inhibition value, I (%): 20%
[3]; C 6.47 μg/mL, age of the fungus 9 days
  Inhibition value, I (%): 8%
[3]; C 6.47 μg/mL, age of the fungus 12 days
  Inhibition value, I (%): 1%
[3]; C 9.71 μg/mL, age of the fungus 3 days
  Inhibition value, I (%): 41%
[3]; C 9.71 μg/mL, age of the fungus 5 days
  Inhibition value, I (%): 36%
[3]; C 9.71 μg/mL, age of the fungus 7 days
  Inhibition value, I (%): 32%
[3]; C 9.71 μg/mL, age of the fungus 9 days
  Inhibition value, I (%): 20%
[3]; C 9.71 μg/mL, age of the fungus 12 days
  Inhibition value, I (%): 16%
[3]; C 12.94 μg/mL, age of the fungus 3 days
  Inhibition value, I (%): 59%
[3]; C 12.94 μg/mL, age of the fungus 5 days
  Inhibition value, I (%): 55%
[3]; C 12.94 μg/mL, age of the fungus 7 days
  Inhibition value, I (%): 53%
[3]; C 12.94 μg/mL, age of the fungus 9 days
  Inhibition value, I (%): 48%
[3]; C 12.94 μg/mL, age of the fungus 12 days
  Inhibition value, I (%): 30%
[3]
  EC50: 8.99 µg/mL

## CC[N+](CC)(CC)CC(=O)N/N=C1\C(=O)N(Cc2cc(C(C)(C)C)c(O)c(C(C)(C)C)c2)c2c(Br)cc(Cl)cc21 [Compound 3g, 2-(2-(1-(3,5-Di-tert-butyl-4-hydroxybenzyl)-5-chloro-7-bromo-2-oxoindolin-3-ylidene)hydrazinyl)-N,N,N-triethyl-2-oxoethanammonium bromide]
[1]; [4]
  zone of inhibition at 2000 µM: 9 mm
[1]; [5]
  zone of inhibition at 2000 µM: ≥ 9 mm
[2]
  inhibition at 2000 µM: 8.9%
[3]; C 1.43 μg/mL, age of the fungus 3 days
  Inhibition value, I (%): 30%
[3]; C 1.43 μg/mL, age of the fungus 5 days
  Inhibition value, I (%): 29%
[3]; C 1.43 μg/mL, age of the fungus 7 days
  Inhibition value, I (%): 15%
[3]; C 1.43 μg/mL, age of the fungus 9 days
  Inhibition value, I (%): 1%
[3]; C 1.43 μg/mL, age of the fungus 12 days
  Inhibition value, I (%): 0%
[3]; C 3.58 μg/mL, age of the fungus 3 days
  Inhibition value, I (%): 38%
[3]; C 3.58 μg/mL, age of the fungus 5 days
  Inhibition value, I (%): 29%
[3]; C 3.58 μg/mL, age of the fungus 7 days
  Inhibition value, I (%): 22%
[3]; C 3.58 μg/mL, age of the fungus 9 days
  Inhibition value, I (%): 5%
[3]; C 3.58 μg/mL, age of the fungus 12 days
  Inhibition value, I (%): 0%
[3]; C 7.15 μg/mL, age of the fungus 3 days
  Inhibition value, I (%): 40%
[3]; C 7.15 μg/mL, age of the fungus 5 days
  Inhibition value, I (%): 33%
[3]; C 7.15 μg/mL, age of the fungus 7 days
  Inhibition value, I (%): 26%
[3]; C 7.15 μg/mL, age of the fungus 9 days
  Inhibition value, I (%): 14%
[3]; C 7.15 μg/mL, age of the fungus 12 days
  Inhibition value, I (%): 11%
[3]; C 10.73 μg/mL, age of the fungus 3 days
  Inhibition value, I (%): 48%
[3]; C 10.73 μg/mL, age of the fungus 5 days
  Inhibition value, I (%): 43%
[3]; C 10.73 μg/mL, age of the fungus 7 days
  Inhibition value, I (%): 41%
[3]; C 10.73 μg/mL, age of the fungus 9 days
  Inhibition value, I (%): 31%
[3]; C 10.73 μg/mL, age of the fungus 12 days
  Inhibition value, I (%): 26%
[3]; C 14.30 μg/mL, age of the fungus 3 days
  Inhibition value, I (%): 51%
[3]; C 14.30 μg/mL, age of the fungus 5 days
  Inhibition value, I (%): 48%
[3]; C 14.30 μg/mL, age of the fungus 7 days
  Inhibition value, I (%): 46%
[3]; C 14.30 μg/mL, age of the fungus 9 days
  Inhibition value, I (%): 41%
[3]; C 14.30 μg/mL, age of the fungus 12 days
  Inhibition value, I (%): 28%
[3]
  EC50: 4.77 µg/mL
